From ChEMBL document CHEMBL4428067, “Drug Discovery against Psoriasis: Identification of a New Potent FMS-like Tyrosine Kinase 3 (FLT3) Inhibitor, 1-(4-((1H-Pyrazolo[3,4-d]pyrimidin-4-yl)oxy)-3-fluorophenyl)-3-(5-(tert-butyl)isoxazol-3-yl)urea, That Showed Potent Activity in a Psoriatic Animal Model” (J Med Chem, 2016)
pIC50: −log10 of the molar value.

Biological target: T1, Receptor-type tyrosine-protein kinase FLT3 (Homo sapiens, UniProt P36888)
T1 sequence (P36888 whole entry): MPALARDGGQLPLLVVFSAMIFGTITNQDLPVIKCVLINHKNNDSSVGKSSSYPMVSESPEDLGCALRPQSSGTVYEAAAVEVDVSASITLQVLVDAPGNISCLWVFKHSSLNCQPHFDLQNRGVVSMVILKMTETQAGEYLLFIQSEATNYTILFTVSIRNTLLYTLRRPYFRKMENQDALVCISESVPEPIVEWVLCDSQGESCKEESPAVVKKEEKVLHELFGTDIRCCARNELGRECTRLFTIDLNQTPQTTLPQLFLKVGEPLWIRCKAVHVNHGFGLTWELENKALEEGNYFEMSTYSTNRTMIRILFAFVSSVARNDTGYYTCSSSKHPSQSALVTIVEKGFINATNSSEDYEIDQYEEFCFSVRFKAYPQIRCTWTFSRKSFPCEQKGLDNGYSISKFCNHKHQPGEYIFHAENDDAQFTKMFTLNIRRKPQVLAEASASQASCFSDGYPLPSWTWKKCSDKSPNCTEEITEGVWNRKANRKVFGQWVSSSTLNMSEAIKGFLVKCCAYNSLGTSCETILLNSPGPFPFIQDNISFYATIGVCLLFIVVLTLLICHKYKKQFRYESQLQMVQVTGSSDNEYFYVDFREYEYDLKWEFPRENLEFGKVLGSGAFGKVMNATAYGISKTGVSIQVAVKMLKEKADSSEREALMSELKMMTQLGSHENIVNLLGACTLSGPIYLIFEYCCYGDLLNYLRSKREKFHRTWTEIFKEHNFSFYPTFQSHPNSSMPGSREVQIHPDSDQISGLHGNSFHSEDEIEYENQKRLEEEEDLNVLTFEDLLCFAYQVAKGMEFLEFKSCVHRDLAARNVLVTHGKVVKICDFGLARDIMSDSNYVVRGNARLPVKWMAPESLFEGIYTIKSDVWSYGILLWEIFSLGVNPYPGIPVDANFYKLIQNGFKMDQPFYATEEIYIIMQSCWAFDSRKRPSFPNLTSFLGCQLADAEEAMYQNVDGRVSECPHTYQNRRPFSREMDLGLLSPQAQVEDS
Experiment: Inhibition of recombinant human N-terminal GST-tagged FLT3 (564 to end residues) expressed by baculovirus in Sf21 insect cells measured after 10 mins in presence of [gamma-33P]ATP by scintillation counter method

pIC50 | SMILES
8.00 | CC(C)(C)c1cc(NC(=O)Nc2ccc(Oc3ncnc4[nH]ncc34)cc2)n(C(=O)O)n1
8.70 | CC(C)(C)c1cc(NC(=O)Nc2ccc(Oc3ncnc4[nH]ncc34)c(Cl)c2)no1
8.10 | CC(C)(C)c1cc(NC(=O)Nc2ccc(Oc3ncnc4[nH]ncc34)cc2)on1
8.22 | CC(C)(C)c1cc(NC(=O)Nc2ccc(Oc3ncnc4[nH]ncc34)cc2F)no1
7.55 | O=C(Nc1ccc(Oc2ncnc3[nH]ncc23)cc1)Nc1cc(C(F)(F)F)on1
7.21 | Cn1nc(C(C)(C)C)cc1NC(=O)Nc1ccc(Oc2ncnc3[nH]ncc23)cc1
7.96 | CC(C)(C)c1cc(NC(=O)Nc2ccc(Oc3ncnc4[nH]ncc34)cc2)no1
8.10 | CC(C)(C)c1csc(NC(=O)Nc2ccc(Oc3ncnc4[nH]ncc34)cc2)n1
6.18 | Cc1cc(Oc2ncnc3[nH]ncc23)ccc1NC(=O)Nc1cc(C(C)(C)C)on1
7.57 | Cn1ncc2c(Oc3ccc(NC(=O)Nc4cc(C(C)(C)C)on4)cc3)ncnc21
7.18 | Cn1nc(C(C)(C)C)cc1NC(=O)Nc1ccc(Oc2ncnc3[nH]ncc23)c(F)c1
8.22 | Cc1cc(NC(=O)Nc2cc(C(C)(C)C)on2)ccc1Oc1ncnc2[nH]ncc12
6.66 | CC(C)n1ncc2c(Oc3ccc(NC(=O)Nc4cc(C(C)(C)C)on4)cc3)ncnc21

Second part, the compound before the results:

SMILES | pIC50
O=C(Nc1ccc(Oc2ncnc3[nH]ncc23)cc1)Nc1nc(-c2ccccc2)cs1 | 7.14
CN(C)CCCn1ncc2c(Oc3ccc(NC(=O)Nc4cc(C(C)(C)C)on4)cc3)ncnc21 | 7.10
CC(C)(C)c1cc(NC(=O)Nc2ccc(Oc3ncnc4c3cnn4CCN3CCOCC3)cc2)no1 | 6.35
CC(C)c1cc(NC(=O)Nc2ccc(Oc3ncnc4[nH]ncc34)cc2)n(C)n1 | 7.09
CC(C)(C)c1cc(NC(=O)Nc2ccc(Oc3ncnc4[nH]ncc34)cc2)n(-c2ccccc2)n1 | 7.30
Cn1nc(C(F)(F)F)cc1NC(=O)Nc1ccc(Oc2ncnc3[nH]ncc23)cc1 | 7.42
O=C(Nc1ccc(Oc2ncnc3[nH]ncc23)cc1)Nc1nc2ccccc2s1 | 6.53
CC(C)(C)c1cc(NC(=O)Nc2ccc(Oc3ncnc4[nH]ncc34)cc2)n(C2CCCC2)n1 | 7.28
Cn1nc(C(F)(F)F)cc1NC(=O)Nc1ccc(Oc2ncnc3[nH]ncc23)c(F)c1 | 7.44
CC(C)(C)c1cc(NC(=O)Nc2ccc(Oc3ncnc4[nH]ncc34)c(F)c2)n(C2CCCC2)n1 | 7.28
CC(C)(C)c1cc(NC(=O)Nc2ccc(Oc3ncnc4[nH]ncc34)c(F)c2)n(-c2ccccc2)n1 | 7.25
CC(C)(C)c1cc(NC(=O)Nc2ccc(Oc3ncnc4[nH]ncc34)c(F)c2)n(-c2ccc(F)cc2)n1 | 7.38
